{"source": "paper PMC3589633", "about": "(Investigational New Drugs, 2012)", "key": {"[1]": {"system": "patients with advanced solid tumors", "conditions": "cited from earlier work"}, "[2]": {"system": "patients with advanced or metastatic solid tumors"}, "[3]": {"system": "patients with advanced or metastatic solid tumors", "conditions": "in vivo"}, "HER2": {"system": "HER2", "conditions": "read-out: half-maximal inhibitory concentration (IC50); cited from earlier work"}, "[4]": {"experiment": "Plasma pharmacokinetics, noncompartmental analysis", "type": "in vivo, human", "conditions": "for clearance: total body clearance"}, "HER4": {"system": "HER4", "conditions": "read-out: half-maximal inhibitory concentration (IC50); cited from earlier work"}, "advanced solid tumors": {"system": "advanced solid tumors", "experiment": "Antitumor activity by RECIST", "type": "in vivo, human"}, "[5]": {"conditions": "20 mg q.d. oral, Day 27 steady state, n = 3"}, "[6]": {"conditions": "60 mg q.d. oral, Day 27 steady state, individual value from one patient"}}, "note": "Read-outs that look alike come from different tables or passages of the source. Marks after values point to notes of the source that are not given here."}
{"smiles": "CN(C)C/C=C/C(=O)Nc1cc2c(Nc3ccc(F)c(Cl)c3)ncnc2cc1O[C@H]1CCOC1", "note": "[afatinib]", "values": [{"measurement": "dose that could be safely administered", "setting": "[1]; 2-week on/2-week off schedule", "result": 70, "unit": "mg/day"}, {"measurement": "dose administered with tolerable side effects", "setting": "[1]; 3-week on/1-week off schedule", "result": 40, "unit": "mg/day"}, {"measurement": "maximum tolerated dose (MTD)", "setting": "[1]; 3-week on/1-week off schedule", "result": 55, "unit": "mg/day"}, {"measurement": "recommended Phase II dose (RP2D)", "setting": "[1]; once-daily, 2-week on/off schedule", "result": 70, "unit": "mg"}, {"measurement": "Patients discontinued owing to Disease progression", "setting": "[2]; 10 mg/day", "result": "4 (80) n, %"}, {"measurement": "Patients discontinued owing to Disease progression", "setting": "[2]; 20 mg/day", "result": "3 (100) n, %"}, {"measurement": "Patients discontinued owing to Disease progression", "setting": "[2]; 40 mg/day", "result": "14 (73.7) n, %"}, {"measurement": "Patients discontinued owing to Disease progression", "setting": "[2]; 60 mg/day", "result": "1 (33.3) n, %"}, {"measurement": "Patients discontinued owing to Disease progression", "setting": "[2]; Total", "result": "22 (73.3) n, %"}, {"measurement": "MTD", "setting": "[2]; continuous once-daily oral, 28-day cycles", "result": 40, "unit": "mg/day"}, {"measurement": "Patients discontinued owing to DLT", "setting": "[3]; human", "result": "2 (6.7) n, %"}, {"measurement": "Patients discontinued owing to Other AEs", "setting": "[3]; human", "result": "3 (10.0) n, %"}, {"measurement": "dermatitis acneiform, treatment-related AE, patients", "setting": "[3]; human", "result": 33.3, "unit": "%"}, {"measurement": "diarrhea, treatment-related AE, patients", "setting": "[3]; human", "result": 76.7, "unit": "%"}, {"measurement": "fatigue, treatment-related AE, patients", "setting": "[3]; human", "result": 33.3, "unit": "%"}, {"measurement": "mucosal inflammation, treatment-related AE, patients", "setting": "[3]; human", "result": 43.3, "unit": "%"}, {"measurement": "onset of diarrhea during the first treatment course, patients", "setting": "[3]; human", "result": 70, "unit": "%"}, {"measurement": "patients with AEs considered related to study medication", "setting": "[3]; human", "result": 29}, {"measurement": "patients with at least one AE", "setting": "[3]; human", "result": 30}, {"measurement": "Patients with DLT events during the initial 28-day treatment period", "setting": "[3]; human, 28 days", "result": 3, "unit": "n"}, {"measurement": "cardiac events", "setting": "[3]", "result": "No cardiac events were reported"}, {"measurement": "patients with DLT, in total", "setting": "[3]", "result": "three patients"}, {"measurement": "IC50", "setting": "HER2", "result": 14, "unit": "nM"}, {"measurement": "Cpre,ss gMean", "setting": "[4]; 10 mg q.d. oral, Day 27 steady state, N = 2", "result": "2.64^b ng/mL"}, {"measurement": "CL/F,ss gMean", "setting": "[4]; 10 mg q.d. oral, Day 27 steady state, n = 3", "result": 2980, "unit": "mL/min"}, {"measurement": "CL/F,ss gMean", "setting": "[4]; [5]", "result": 755, "unit": "mL/min"}, {"measurement": "Cpre,ss gMean", "setting": "[4]; [5]", "result": 12.5, "unit": "ng/mL"}, {"measurement": "Cpre,ss gMean", "setting": "[4]; 40 mg q.d. oral, Day 27 steady state, N = 16", "result": "16.1^c ng/mL"}, {"measurement": "CL/F,ss", "setting": "[4]; [6]", "result": 567, "unit": "mL/min"}, {"measurement": "Cpre,ss", "setting": "[4]; [6]", "result": 52.3, "unit": "ng/mL"}, {"measurement": "dose-proportionality", "setting": "[4]; 10-60 mg, steady state", "result": "no obvious deviation from dose-proportionality"}, {"measurement": "steady-state reached", "setting": "[4]; Treatment Period 1, once-daily oral", "result": "≤ 8", "unit": "days"}, {"measurement": "half-life", "setting": "[4]; human, plasma, oral", "result": 37.4, "unit": "h"}, {"measurement": "Vd", "setting": "[4]; human, plasma, oral, apparent volume of distribution during the terminal phase, overall gMean, all groups (data not shown)", "result": 3630, "unit": "L"}, {"measurement": "clearance", "setting": "[4]; human, plasma, oral, gMean, range across dose groups", "result": "567 to 2980", "unit": "mL/min"}, {"measurement": "clearance", "setting": "[4]; human, plasma, oral, overall gMean, across all groups (data not shown)", "result": 1330, "unit": "mL/min"}, {"measurement": "half-life", "setting": "[4]; human, plasma, po", "result": "34 to 48", "unit": "h"}, {"measurement": "IC50", "setting": "HER4", "result": 1, "unit": "nM"}, {"measurement": "patients with stable disease", "setting": "advanced solid tumors; 40 mg dose cohort", "result": "Five"}, {"measurement": "objective responses", "setting": "advanced solid tumors; 29 evaluable patients, RECIST", "result": "No objective responses"}, {"measurement": "patients remaining on treatment for more than 16 weeks", "setting": "advanced solid tumors; one in 20 mg/d group, two in 40 mg/d group", "result": "Three"}, {"measurement": "duration of stable disease", "setting": "advanced solid tumors; one ovarian cancer patient, 20 mg group", "result": 204, "unit": "days"}]}
